# Data reported in patent publication US20250154145A1, “OXER1 ANTAGONISTS AND USES THEREOF” (Fairhaven Pharmaceuticals Ins., priority 2021, published 2025).
# pIC50: −log10 of the molar value.
# Test system: neutrophils
# Assay: Neutrophil calcium flux assay (5-OXO-ETE-stimulated, Indo-1 fluorescence)
# Assay type: cell-based
# Details: 5-OXO-ETE-stimulated calcium flux
# Protocol: After isolation, neutrophils were resuspended in PBS without calcium and Magnesium (PBS −/−) at a concentration of 5×10^6 cells/ml. 2ul of Indo-1 (1 mM) were added per ml of cells. After incubation at 37° C. for 30 minutes, cells were washed twice in PBS −/− and resuspended at 5×10^6 cells/ml in assay buffer (HBSS 1× with calcium and magnesium and […]). In a 96-well Black optical clear bottom plate 100 μL of neutrophil were dispensed to each well. After incubation at 37° C. for 5 minutes, 50 μL of assay buffer or 3× antagonist were added and incubated for 5 min in a Tecan Spark plate reader (Tecan, Morrisville, NC). Baseline was measured for 30 sec (wavelength setup: excitation: 331 nm and emission:410 nm). When baseline is stable, 50p of 5-OXO-ETE at 200 nM (4×) or HBSS was added to appropriate wells. Fluorescence was measured every 5 seconds for 30 cycles. Results are expressed as Net fluorescence (FLU minus Background and injection peak). All data were analyzed using GraphPad Prism version 9 for Windows (GraphPad, San Diego, CA).
row,SMILES,pIC50
1,C[C@H](CC(=O)O)CC(=O)c1c(CCCCOCc2ccc(F)cc2)n(C)c2ncc(C#N)cc12 [Compound I-368],6.52 to 7.00

# Same assay, conditions: Neutrophil, 5-OXO-ETE-stimulated calcium flux
row,SMILES,pIC50
1,CC(CC(=O)O)CC(=O)c1c(CCCCOCc2cncnc2)n(C)c2ccc(C#N)cc12 (centres unmarked) [Compound I-393],< 6.52
2,C[C@H](CC(=O)NCC(=O)O)CC(=O)c1c(CCCCOCc2ccccc2)n(C)c2ncc(C#N)cc12 [Compound I-459],< 6.52
3,C[C@H](CC(=O)O)CC(=O)c1c(CCCCOCc2cccc(F)c2)n(C)c2ncc(C#N)cc12 [Compound I-293],> 7.00
4,Cn1c(CCCCOCc2cccc(Cl)c2)c(C(=O)N2CC[C@H](c3nnn[nH]3)C2)c2cc(C#N)cnc21 [Compound I-224],6.52 to 7.00
5,C[C@H](CC(=O)O)CC(=O)c1c(CCCCC[C@H](O)c2cccc(Cl)c2)n(C)c2ncc(Cl)cc12 [Compound I-110],> 7.00
6,C[C@H](CC(=O)O)CC(=O)c1c(CCCCCNc2cccnc2)n(C)c2ccc(Cl)cc12 [Compound I-141],< 6.52
7,Cn1c(CCCCCC(O)c2cccc(Cl)c2)c(C(=O)N2CC[C@H](C(=O)O)C2)c2cc(Cl)cnc21 (some centres unmarked) [Compound I-173],< 6.52
8,CC(CC(=O)O)CC(=O)c1c(CCCCCCc2cccc(C#N)c2)n(C)c2ncc(Cl)cc12 (centres unmarked) [Compound I-285],> 7.00
9,Cn1c(CCCCOCc2cccc(Cl)c2)c(C(=O)N2CC[C@H](C(=O)O)C2)c2cc(C(F)(F)F)cnc21 [Compound I-183],< 6.52
10,Cc1nc2c(cc1C#N)c(C(=O)CC(C)CC(=O)O)c(CCCCOCc1cccc(Cl)c1)n2C (centres unmarked) [Compound I-381],< 6.52
11,COc1cccc(C(O)CCCCCc2c(C(=O)CC(C)CC(=O)O)c3cc(C#N)cnc3n2C)c1 (centres unmarked) [Compound I-302],> 7.00
12,COc1ccc2c(c1)c(C(=O)C[C@H](C)CC(=O)O)c(CCCCCCc1cccc(Cl)c1)n2C [Compound I-96],> 7.00
13,Cn1c(CCCCCCC#CC2CC(F)(F)C2)c(C(=O)N2CC[C@H](C(=O)NCCS(=O)(=O)O)C2)c2cc(C#N)cnc21 [Compound I-464],< 6.52
14,Cn1c(CCCCOCc2cccc(Cl)c2)c(C(=O)N2CC[C@H](c3nnn[nH]3)C2)c2cc(C(F)(F)F)ccc21 [Compound I-188],6.52 to 7.00
15,CC(CC(=O)O)CC(=O)c1c(CCCCOCc2cccc(C#N)c2)n(C)c2cccnc12 (centres unmarked) [Compound I-398],< 6.52
16,CC(CC(=O)O)CC(=O)c1c(CCCCCCC#CC2CC(F)(F)C2)n(C)c2ccc(Cl)cc12 (centres unmarked) [Compound I-278],> 7.00
17,C[C@H](CC(=O)O)CC(=O)c1c(CCCCOCc2cccc(C#N)c2)n(C)c2ncc(Cl)cc12 [Compound I-212],> 7.00
18,CC(=O)Nc1cccc(C(O)CCCCCc2c(C(=O)CC(C)CC(=O)O)c3cc(C#N)cnc3n2C)c1 (centres unmarked) [Compound I-312],< 6.52
19,Cn1c(CCCCCCC#CC2CC(F)(F)C2)c(C(=O)N2CC[C@H](C(=O)NS(=O)(=O)C(F)(F)F)C2)c2cc(C#N)cnc21 [Compound I-364],< 6.52
20,C[C@H](CC(=O)O)CC(=O)c1c(CCCCO[C@@H](C)c2ccccc2)n(C)c2ncc(C#N)cc12 [Compound I-432],> 7.00
21,C[C@H](CC(=O)O)CC(=O)c1c(CCCCCCc2cncs2)n(C)c2ncc(C#N)cc12 [Compound I-371],> 7.00
22,Cn1c(CCCCCCc2cccc(Cl)c2)c(C(=O)N2CC[C@H](c3nnn[nH]3)C2)c2cc(C#N)cnc21 [Compound I-223],> 7.00

row,SMILES,pIC50
1,CC(CNC(=O)c1c(CCCCOCc2cccc(Cl)c2)n(C)c2ncc(C(N)=O)cc12)C(=O)O (centres unmarked) [Compound I-287],< 6.52
2,CC(CC(=O)O)CC(=O)c1c(CCCCOCc2ccc(F)cc2)n(C)c2ncc(C#N)cc12 (centres unmarked) [Compound I-297],> 7.00
3,Cn1c(CCCCCC#CC2CC(F)(F)C2)c(C(=O)N2CC[C@H](C(=O)O)C2)c2cc(C#N)cnc21 [Compound I-343],< 6.52
4,C[C@H](CC(=O)O)CC(=O)c1c(CCOCC#Cc2ccc(F)nc2)n(C)c2ncc(Cl)cc12 [Compound I-229],6.52 to 7.00
5,Cn1c(CCCCCCc2cccc(Cl)c2)c(C(=O)N2CC(CC(=O)O)C2)c2cc(Cl)ccc21 [Compound I-152],< 6.52
6,CC(CC(=O)O)CC(=O)c1c(CCCCOCc2cccc(Cl)c2)n(C)c2nccc(Cl)c12 (centres unmarked) [Compound I-379],< 6.52
7,Cn1c(CCCCCCc2cccc(Cl)c2)c(C(=O)N2CC[C@@H](C(=O)O)C2)c2cc(Cl)ccc21 [Compound I-120],6.52 to 7.00
8,C[C@H](CC(=O)O)CC(=O)c1c(CCCCOCC23CC(C#N)(C2)C3)n(C)c2ccc(Cl)cc12 [Compound I-108],6.52 to 7.00
9,CC(CC(=O)O)CC(=O)c1c(CCCCCCC#CCC(F)(F)F)n(C)c2ccc(Cl)cc12 (centres unmarked) [Compound I-111],6.52 to 7.00
10,C[C@@H]1CN(C(=O)c2c(CCCCCCC#CC3CC(F)(F)C3)n(C)c3ncc(C#N)cc23)C[C@H]1C(=O)O [Compound I-347],< 6.52
11,C[C@H](CC(=O)N[C@@H](Cc1ccccc1)C(=O)O)CC(=O)c1c(CCCCOCc2ccccc2)n(C)c2ncc(C#N)cc12 [Compound I-467],< 6.52
12,COc1cccc(CCCCC#Cc2c(C(=O)CC(C)CC(=O)O)c3cc(C#N)cnc3n2C)c1 (centres unmarked) [Compound I-419],< 6.52
13,COc1cc(COCCCCc2c(C(=O)CC(C)CC(=O)O)c3cc(C#N)cnc3n2C)ccc1F (centres unmarked) [Compound I-391],> 7.00
14,Cc1ccccc1COCCCCc1c(C(=O)CC(C)CC(=O)O)c2cc(C#N)cnc2n1C (centres unmarked) [Compound I-450],< 6.52
15,C[C@H](CC(=O)O)CC(=O)c1c(CCCCOCc2ccc(F)cc2)n(C)c2ncc(C#N)cc12 [Compound I-249],> 7.00
16,CC(CC(=O)O)CC(=O)c1c(CCCCOCc2cccc(C#N)c2)n(C)c2c(F)cc(C#N)cc12 (centres unmarked) [Compound I-414],< 6.52
17,Cn1c(CCCCCCc2cccc(Cl)c2)c(C(=O)N2CC[C@H](C(=O)O)C2)c2cc(Cl)ccc21 [Compound I-118],> 7.00
18,CC(CC(=O)O)CC(=O)c1c(CCCCCCc2cccc(Cl)c2)n(C[C@H](O)CO)c2ncc(C#N)cc12 (some centres unmarked) [Compound I-282],< 6.52
19,C[C@H](CC(=O)O)CC(=O)c1c(CCCCOCc2cccc(OC(F)(F)F)c2)n(C)c2cnccc12 [Compound I-408],> 7.00
20,Cn1c(CCCCCCC#CC2CC(F)(F)C2)c(C(=O)N2CC[C@H](c3nnn[nH]3)C2)c2cc(Cl)ccc21 [Compound I-353],> 7.00
21,CC(CCC(=O)c1c(CCCCCCc2cccc(Cl)c2)n(C)c2ccc(Cl)cc12)C(=O)O (centres unmarked) [Compound I-150],< 6.52
22,C[C@@H](CC(=O)NS(C)(=O)=O)CC(=O)c1c(CCCCCCc2cccc(Cl)c2)n(C)c2ccc(Cl)cc12 [Compound I-15],< 6.52

row,SMILES,pIC50
1,CC(CC(=O)O)CC(=O)c1c(CCCCCC(O)c2ccc(F)cc2)n(C)c2ncc(C#N)cc12 (centres unmarked) [Compound I-311],< 6.52
2,Cn1c(CCCOCCc2cccc(Cl)c2)c(C(=O)N2CC[C@H](C(=O)O)C2)c2cc(Cl)cnc21 [Compound I-174],< 6.52
3,C[C@H](CC(=O)O)CC(=O)c1c(CCCCCOCc2cccc(Cl)c2)n(C)c2ccc(C#N)cc12 [Compound I-425],6.52 to 7.00
4,C[C@H](CC(=O)O)CC(=O)c1c(CCCCOCc2cccc(F)c2)n(C)c2ncc(Cl)cc12 [Compound I-100],6.52 to 7.00
5,CC(C)COCCc1c(C(=O)C[C@H](C)CC(=O)O)c2cc(Cl)ccc2n1C [Compound I-72],< 6.52
6,C[C@@H](CC(=O)O)CC(=O)c1c(CCCCO[C@H](C)c2ccccc2)n(C)c2ncc(C#N)cc12 [Compound I-433],< 6.52
7,COC(=O)C[C@@H](C)CC(=O)c1c(CCCCOCc2ccccc2)n(C)c2ncc(C#N)cc12 [Compound I-449],< 6.52
8,CC(CC(=O)O)CC(=O)c1c(CCCCCOCc2cccc(Cl)c2)[nH]c2ccc(C#N)cc12 (centres unmarked) [Compound I-443],6.52 to 7.00
9,C[C@H](CC(=O)O)CC(=O)c1c(CCCCOCc2cccc(Cl)c2)[nH]c2ccc(Cl)cc12 [Compound I-189],6.52 to 7.00
10,C[C@H](CC(=O)O)CC(=O)c1c(CCCCOCc2cccc(Cl)c2)[nH]c2ccc(C#N)cc12 [Compound I-382],> 7.00
11,CC(CC(=O)O)CC(=O)c1c(CCCCO)n(C)c2ncc(C#N)cc12 (centres unmarked) [Compound I-429],< 6.52
12,C[C@H](CC(=O)O)CC(=O)c1c(COCCCCc2cccc(Cl)c2)n(C)c2ccc(Cl)cc12 [Compound I-63],> 7.00
13,C[C@@H](CC(=O)O)CC(=O)c1c(CCCCOCc2ccc(F)cc2)n(C)c2ncc(C#N)cc12 [Compound I-369],< 6.52
14,Cn1c(CCCCCCc2cccc(Cl)c2)c(C(=O)N2CC[C@H](C(=O)NS(C)(=O)=O)C2)c2cc(C#N)cnc21 [Compound I-361],< 6.52
15,Cn1c(CCCCOCc2ccccc2)c(C(=O)N2CC[C@H](C(=O)O)C2)c2cc(C#N)cnc21 [Compound I-178],< 6.52
16,Cn1c(CCCCCCc2cccc(Cl)c2)c(C(=O)N2CC[C@H](C(=O)O)C2)c2cc(Cl)cnc21 [Compound I-147],< 6.52
17,Cn1c(CCCCOCc2ccccc2)c(C(=O)CC(CC(=O)O)C(F)(F)F)c2cc(C#N)cnc21 (centres unmarked) [Compound I-440],< 6.52
18,CC(CC(=O)O)CC(=O)c1c(CCCCOCc2cccc(C#N)c2)n(C)c2ncccc12 (centres unmarked) [Compound I-392],6.52 to 7.00
19,CC[C@@H](CC(=O)O)CC(=O)c1c(CCCCOCc2ccccc2)n(C)c2ncc(C#N)cc12 [Compound I-439],< 6.52
20,CC(CC(=O)O)CC(=O)c1c(CCCOCC(F)(F)c2cccc(Cl)c2)n(C)c2ccc(Cl)cc12 (centres unmarked) [Compound I-430],> 7.00
